Results on three compounds are retold here after US6242429A, “Arabinosyladenine derivatives” (priority 1998, dated 2001).

For data set [1], the system named is adenosinedeaminase (ADA). The following applies: background statement; cited from earlier work.
The test system of data set [2] is shingles herpes virus (VZV, Kawaguchi strain). Put plainly: Antiviral activity to shingles herpes virus, plaque numbers on HEL cells. The class given is cell-based, varicella-zoster virus. The following applies: incubated one week, FIG. 1 and FIG. 2. Here is the method: As a test for efficacy of antiviral activity, antiviral activity to shingles herpes virus was measured. Cell-free aricella-zoster virus (VZV) (Kawaguchi strain) was diluted and the resulting solution was layered on HEL cells of a 100% confluent. The layered product was placed in a CO2 incubator of 37° C., shaken every 15 minutes and infected for one hour. The virus solution was removed by suction, then DMEM containing 5% of FCS and a compound of the present invention, a control compound or Ara-A (positive control) was added thereto and the mixture was incubated for one week. The incubated mixture was fixed by formalin, dyed with Crystal Violet and numbers of plaques were measured. The inhibiting rate to shingles virus was determined from the plaque numbers of the control.

Data set [3] concerns adenosinedeaminase (ADA). Put plainly: Stability to ADA, enzymatic reaction followed by decrease in UV absorption at 265 nm. The class given is in vitro ADME. The following applies: 0.1 mM compound, 75 mM phosphate buffer pH 7.5, 25° C., UV 265 nm. Here is the method: An enzymatic reaction was carried out to test stability of the compounds to ADA. Thus, 200 μL (final concentration: 0.1 mM) of a 1 mM solution of a compound of the present invention, a control compound or Ara-A (control), 1.5 mL of a 0.1 M phosphate buffer (pH 7.5; final concentration: 75 mM) and 300 μL of a 200 units/mL enzyme solution (final concentration: […]) were placed in a UV cell and the decrease in ultraviolet absorption at 265 nm with a lapse of time was measured by an ultraviolet absorption meter. The enzymatic reaction was carried out at 25° C. As the enzymatic reaction proceeded, an ultraviolet absorption at 265 nm decreased and said rate of decrease in ultraviolet absorption was expressed as a relative enzymatic reaction rate.

Structures are written as SMILES. Entries after “also recorded” stand apart in the source; their conditions may differ.

Regarding `Nc1ncnc2c1ncn2[C@@H]1O[C@H](CO)[C@@H](O)[C@@H]1O` [Ara-A, Arabinosyladenine], the “metabolism by ADA in the blood stream” value in the data set on adenosinedeaminase (ADA) [1] was “quickly metabolized by adenosinedeaminase (ADA) in the blood stream to hypoxanthine arabinoside”.

For `Cc1nc(N)c2ncn([C@@H]3O[C@H](CO)[C@@H](O)[C@@H]3O)c2n1` [control compound A, 9-(β-D-arabinofuranosyl)-2-methyladenine], the “antiviral activity to shingles virus (inhibiting rate from plaque numbers)” value in data set [2] was “no strong antiviral action is obtained; also recorded: a sufficient antiviral action is not achieved”. The “resistance (stability) to metabolism by ADA, relative enzymatic reaction rate” value in the data set with adenosinedeaminase (ADA) [3] is “not satisfactory in terms of resistance to ADA; also recorded: did not show a favorable resistance to ADA”. With `CCc1nc(N)c2ncn([C@@H]3O[C@H](CO)[C@@H](O)[C@@H]3O)c2n1` [control compound B, 9-(β-D-arabinofuranosyl)-2-ethyladenine], the “antiviral activity to shingles virus (inhibiting rate from plaque numbers)” value in data set [2] is “no strong antiviral action is obtained; also recorded: a sufficient antiviral action is not achieved”. Further, in the data set with adenosinedeaminase (ADA) [3], the “resistance (stability) to metabolism by ADA, relative enzymatic reaction rate” value is recorded as “not satisfactory in terms of resistance to ADA; also recorded: did not show a favorable resistance to ADA”.
